pKi: −log10 of the molar value.
Target: NK1 receptor (Homo sapiens, UniProt P25103)
Assay: NK1 receptor binding (inhibition of Substance P binding, Ki by Chang-Prusoff equation)
Description: The in vitro and in vivo NK1, NK2 and NK3 activities of the compounds of Formula (I) can be determined by various procedures known in the art, such as a test for their ability to inhibit the activity of the NK1 agonist Substance P. The percent inhibition of neurokinin agonist activity is the difference between the percent of maximum specific binding (“MSB”) and 100%. The percent of MSB is defined by the following equation, wherein “dpm” represents “disintegrations per minute”:
[formula] The concentration at which the compound produces 50% inhibition of binding is then used to determine an inhibition constant (“Ki”) using the Chang-Prusoff equation.
The activities (potencies) for the compounds of the invention are determined by measuring their Ki values. […] Even more preferred are compounds having average Ki values of from 0.05 nM to about 5 nM for the NK1 receptor. Especially preferred compounds have NK1 average Ki values of from 0.05 nM to about 1 nM. Even more especially preferred compounds have NK1 average Ki values of from 0.05 nM to about 0.2 nM.

Sequence of NK1 receptor (P25103 whole entry, species assumed): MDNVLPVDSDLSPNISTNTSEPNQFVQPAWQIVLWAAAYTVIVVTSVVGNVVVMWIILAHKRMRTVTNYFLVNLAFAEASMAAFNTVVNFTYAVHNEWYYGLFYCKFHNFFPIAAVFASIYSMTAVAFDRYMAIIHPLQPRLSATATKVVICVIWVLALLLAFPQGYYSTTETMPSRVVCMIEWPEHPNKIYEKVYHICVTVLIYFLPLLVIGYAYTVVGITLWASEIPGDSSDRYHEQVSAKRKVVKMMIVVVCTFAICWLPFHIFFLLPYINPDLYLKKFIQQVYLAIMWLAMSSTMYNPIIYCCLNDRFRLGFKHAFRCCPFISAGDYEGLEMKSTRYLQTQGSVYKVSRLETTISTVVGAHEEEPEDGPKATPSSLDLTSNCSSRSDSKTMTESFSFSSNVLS

| Compound | pKi |
| --- | --- |
| C[C@@H](OC[C@@]1(c2ccccc2)CC[C@]2(CO)CN1CC(=O)N2)c1cc(C(F)(F)F)cc(C(F)(F)F)c1 [Example 3a] | 9.82 |
| C[C@@H](OC[C@@]1(c2ccccc2)CC[C@@H]2CN1CCN2)c1cc(C(F)(F)F)cc(C(F)(F)F)c1 [Example 4] | 9.96 |
| C[C@@H](OC[C@@]1(c2ccccc2)CC[C@@H]2CN1CCN2C(N)=O)c1cc(C(F)(F)F)cc(C(F)(F)F)c1 [Example 5] | 10.00 |
| C[C@@H](OC[C@@]1(c2ccccc2)CC[C@]2(CC#N)CN1CC(=O)N2)c1cc(C(F)(F)F)cc(C(F)(F)F)c1 [Example 8] | 9.92 |
| COC[C@]12CC[C@@](CO[C@H](C)c3cc(C(F)(F)F)cc(C(F)(F)F)c3)(c3ccccc3)N(CC(=O)N1)C2 [Example 12] | 9.89 |
| C[C@@H](OC[C@@]1(c2ccccc2)CC[C@]2(COC(N)=O)CN1CC(=O)N2)c1cc(C(F)(F)F)cc(C(F)(F)F)c1 [Example 15] | 10.05 |
| C[C@@H](OC[C@@]1(c2ccccc2)CC[C@]2(CC(N)=O)CN1CC(=O)N2)c1cc(C(F)(F)F)cc(C(F)(F)F)c1 [Example 16] | 9.80 |
| C[C@@H](OC[C@@]1(c2ccccc2)CC[C@]2(Cn3cnnn3)CN1CC(=O)N2)c1cc(C(F)(F)F)cc(C(F)(F)F)c1 [Example 20] | 9.82 |
| C[C@@H](OC[C@@]1(c2ccccc2)CC[C@]2(CN3CCCCC3=O)CN1CC(=O)N2)c1cc(C(F)(F)F)cc(C(F)(F)F)c1 [Example 30] | 9.96 |
| C[C@@H](OC[C@@]1(c2ccccc2)CC[C@]2(CNC3CC3)CN1CC(=O)N2)c1cc(C(F)(F)F)cc(C(F)(F)F)c1 [Example 32] | 9.96 |
| CC(C)=NOC[C@]12CC[C@@](CO[C@H](C)c3cc(C(F)(F)F)cc(C(F)(F)F)c3)(c3ccccc3)N(CC(=O)N1)C2 [Example 33] | 9.89 |
| CSC[C@]12CC[C@@](CO[C@H](C)c3cc(C(F)(F)F)cc(C(F)(F)F)c3)(c3ccccc3)N(CC(=O)N1)C2 [Example 34] | 10.15 |

Further lines, results first:

| pKi | Compound |
| --- | --- |
| 9.92 | C[C@@H](OC[C@@]1(c2ccccc2)CC[C@]2(CNS(C)(=O)=O)CN1CC(=O)N2)c1cc(C(F)(F)F)cc(C(F)(F)F)c1 [Example 38] |
| 9.92 | C[C@@H](OC[C@@]1(c2ccccc2)CC[C@@]2(NC(N)=O)CCCN1C2)c1cc(C(F)(F)F)cc(C(F)(F)F)c1 [Example 47] |
| 9.80 | C[C@@H](OC[C@@]1(c2ccccc2)CC[C@]2(CO)CN1CC(=O)O2)c1cc(C(F)(F)F)cc(C(F)(F)F)c1 [Example 49] |
| 9.92 | C[C@@H](OC[C@@]1(c2ccccc2)CC[C@@]23COCCN2C(=O)CN1C3)c1cc(C(F)(F)F)cc(C(F)(F)F)c1 [Example 51] |
| 9.92 | C[C@@H](OC[C@@]1(c2ccccc2)CC[C@]2(CO)CN1CCN2)c1cc(C(F)(F)F)cc(C(F)(F)F)c1 [Example 57] |

— US7354922B2, “Bridged ring NK1 antagonists” (Schering Corporation, priority 2004, dated 2008)
